Results taken from patent publication US20260226042A1, “C[…] H[…] PROCESSES FOR PREPARING THE SAME” (OLON S.P.A., priority 2023, published 2026).
Structures can show the parent of a compound that is named as a salt.

Assay: Dynamic Vapor Sorption (DVS) Isotherm of Aceclidine HCl (hydration of anhydrous to hemihydrate form)
Type: physicochemical
Method: The conversion from anhydrous to hemihydrate form of Aceclidine HCl (4 mg) was analyzed by a Dynamic Vapor Sorption (DVS) Isotherm.

Row | Structure (SMILES) | weight when environmental humidity content decreased (DVS, FIG. 4) | reversibility of conversion anhydrous to hemihydrate form (DVS, with decreasing relative humidity, FIG. 4) | hygroscopicity (compared to the corresponding anhydrous form) | conversion into other forms without controlled conditions (handling without humidity-controlled conditions (e.g. glove box)) | weight change at which the hemihydrate form formation is obtained (DVS isotherm, weight change % / relative humidity %, 4 mg sample, FIG. 4)
1 | CC(=O)OC1CN2CCC1CC2 (centres unmarked) [Aceclidine HCl hemihydrate] | remained stable | irreversible | low hygroscopicity | not subjected to any conversion | 
2 | CC(=O)OC1CN2CCC1CC2 (centres unmarked) [Anhydrous Aceclidine HCl, anhydrous Aceclidine HCl, reference compound] |  |  |  |  | about 4%
